The results in this text go back to ChEMBL document CHEMBL4507276 (2021).

Common to all, as to conditions: Compound concentration 1000.0 nM
Assay [1] has as its target Activin receptor type-1-like (Homo sapiens) (UniProt P37023).
The target of assay [2] is ALK tyrosine kinase receptor (Homo sapiens) (UniProt Q9UM73).
The target of assay [3] is Protein-tyrosine kinase 6 (Homo sapiens) (UniProt Q13882).
In assay [4] the target is Peripheral plasma membrane protein CASK (Homo sapiens) (UniProt O14936).
Assay [5] has as its target Cyclin-dependent kinase 5 (Homo sapiens) (UniProt Q00535).
Assay [6] has as its target Mitogen-activated protein kinase kinase kinase 12 (Homo sapiens) (UniProt Q12852).
In assay [7] the target is Ephrin type-A receptor 4 (Homo sapiens) (UniProt P54764).
Ephrin type-A receptor 4 (Homo sapiens), sequence (P54764 whole entry): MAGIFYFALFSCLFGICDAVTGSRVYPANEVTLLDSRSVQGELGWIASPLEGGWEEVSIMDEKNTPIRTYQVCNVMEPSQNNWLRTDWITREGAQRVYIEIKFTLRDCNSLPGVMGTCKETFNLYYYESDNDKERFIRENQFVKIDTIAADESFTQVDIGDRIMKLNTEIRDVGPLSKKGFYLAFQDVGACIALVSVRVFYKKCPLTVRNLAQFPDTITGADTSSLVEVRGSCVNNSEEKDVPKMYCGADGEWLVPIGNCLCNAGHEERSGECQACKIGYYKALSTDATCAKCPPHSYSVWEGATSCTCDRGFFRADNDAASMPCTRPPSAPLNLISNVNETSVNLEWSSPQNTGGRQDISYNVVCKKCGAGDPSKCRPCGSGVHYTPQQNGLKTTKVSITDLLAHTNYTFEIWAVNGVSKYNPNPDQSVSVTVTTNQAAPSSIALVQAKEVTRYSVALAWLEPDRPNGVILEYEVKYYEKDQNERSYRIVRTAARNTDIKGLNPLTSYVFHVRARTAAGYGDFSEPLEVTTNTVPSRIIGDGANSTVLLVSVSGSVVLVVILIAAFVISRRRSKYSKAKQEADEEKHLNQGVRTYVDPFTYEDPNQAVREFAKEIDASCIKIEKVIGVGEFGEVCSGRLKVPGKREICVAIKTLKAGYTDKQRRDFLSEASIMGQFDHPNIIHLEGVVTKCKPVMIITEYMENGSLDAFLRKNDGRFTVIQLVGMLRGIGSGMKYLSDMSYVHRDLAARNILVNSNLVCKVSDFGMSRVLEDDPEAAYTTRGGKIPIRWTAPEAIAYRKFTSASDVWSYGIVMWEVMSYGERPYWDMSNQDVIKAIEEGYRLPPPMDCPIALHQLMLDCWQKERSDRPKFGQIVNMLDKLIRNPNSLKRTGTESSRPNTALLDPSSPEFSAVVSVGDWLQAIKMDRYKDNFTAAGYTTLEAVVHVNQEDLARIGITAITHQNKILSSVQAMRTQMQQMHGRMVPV
In assay [8] the target is T1, Ephrin type-B receptor 4 (Homo sapiens) (UniProt P54760).
T1 sequence (whole entry): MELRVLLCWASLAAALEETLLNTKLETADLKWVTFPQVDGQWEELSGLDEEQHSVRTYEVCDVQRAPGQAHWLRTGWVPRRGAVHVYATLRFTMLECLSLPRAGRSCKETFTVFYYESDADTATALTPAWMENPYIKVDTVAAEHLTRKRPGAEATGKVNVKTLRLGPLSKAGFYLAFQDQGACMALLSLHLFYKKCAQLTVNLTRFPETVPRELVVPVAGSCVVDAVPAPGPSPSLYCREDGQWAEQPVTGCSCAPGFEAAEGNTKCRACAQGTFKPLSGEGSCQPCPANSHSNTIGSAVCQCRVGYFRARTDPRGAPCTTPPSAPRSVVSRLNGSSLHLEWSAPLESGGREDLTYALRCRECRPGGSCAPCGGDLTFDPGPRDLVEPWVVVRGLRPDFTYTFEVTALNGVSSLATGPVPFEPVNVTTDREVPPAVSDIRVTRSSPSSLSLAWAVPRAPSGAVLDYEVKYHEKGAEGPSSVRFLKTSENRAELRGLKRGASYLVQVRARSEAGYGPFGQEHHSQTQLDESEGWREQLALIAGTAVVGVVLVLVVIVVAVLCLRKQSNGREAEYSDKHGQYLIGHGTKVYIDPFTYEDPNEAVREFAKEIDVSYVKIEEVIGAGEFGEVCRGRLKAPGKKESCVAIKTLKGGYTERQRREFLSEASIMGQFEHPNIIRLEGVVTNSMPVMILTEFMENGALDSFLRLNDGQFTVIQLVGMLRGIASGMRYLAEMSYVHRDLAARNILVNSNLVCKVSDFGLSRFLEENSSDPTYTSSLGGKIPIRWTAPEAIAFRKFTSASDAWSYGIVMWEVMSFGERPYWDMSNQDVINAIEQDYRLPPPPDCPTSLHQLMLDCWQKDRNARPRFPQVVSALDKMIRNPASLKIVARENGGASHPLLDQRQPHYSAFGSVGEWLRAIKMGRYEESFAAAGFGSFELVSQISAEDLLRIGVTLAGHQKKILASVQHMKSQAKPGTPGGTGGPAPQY

The target of assay [9] is Tyrosine-protein kinase JAK1 (Homo sapiens) (UniProt P23458).
Assay [10] concerns the target Leukocyte tyrosine kinase receptor (Homo sapiens) (UniProt P29376).
Assay [11] deals with Mitogen-activated protein kinase kinase kinase kinase 4 (Homo sapiens) (UniProt O95819).
In assay [12] the target is Mitogen-activated protein kinase kinase kinase kinase 5 (Homo sapiens) (UniProt Q9Y4K4).
For assay [13], the target named is Serine/threonine-protein kinase N1 (Homo sapiens) (UniProt Q16512).
Serine/threonine-protein kinase N1 (Homo sapiens), sequence (Q16512 2-942 limits assumed): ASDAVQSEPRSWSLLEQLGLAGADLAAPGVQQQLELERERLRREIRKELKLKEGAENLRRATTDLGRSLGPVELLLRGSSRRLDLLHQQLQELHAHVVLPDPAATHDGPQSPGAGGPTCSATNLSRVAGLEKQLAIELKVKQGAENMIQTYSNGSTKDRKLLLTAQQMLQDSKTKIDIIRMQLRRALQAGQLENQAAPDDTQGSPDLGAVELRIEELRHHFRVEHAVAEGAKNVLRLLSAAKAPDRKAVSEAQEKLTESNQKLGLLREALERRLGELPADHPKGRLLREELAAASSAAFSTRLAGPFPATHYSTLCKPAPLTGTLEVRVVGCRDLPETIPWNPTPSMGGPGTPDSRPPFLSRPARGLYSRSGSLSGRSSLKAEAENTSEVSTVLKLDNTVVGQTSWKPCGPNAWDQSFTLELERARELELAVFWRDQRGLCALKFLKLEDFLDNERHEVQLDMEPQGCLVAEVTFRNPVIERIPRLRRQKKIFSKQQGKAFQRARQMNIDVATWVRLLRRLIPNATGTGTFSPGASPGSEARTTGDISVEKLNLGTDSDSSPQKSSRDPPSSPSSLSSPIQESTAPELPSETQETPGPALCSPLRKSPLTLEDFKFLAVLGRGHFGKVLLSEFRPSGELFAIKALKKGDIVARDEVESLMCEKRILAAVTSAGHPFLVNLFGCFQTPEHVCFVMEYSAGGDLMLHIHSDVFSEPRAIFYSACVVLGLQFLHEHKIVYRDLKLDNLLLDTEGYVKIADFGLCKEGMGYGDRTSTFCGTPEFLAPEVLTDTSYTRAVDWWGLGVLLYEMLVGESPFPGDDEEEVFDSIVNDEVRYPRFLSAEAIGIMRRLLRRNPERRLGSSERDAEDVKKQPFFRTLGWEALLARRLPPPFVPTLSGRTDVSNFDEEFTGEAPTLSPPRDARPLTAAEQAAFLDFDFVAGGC
The target of assay [14] is T2, cGMP-dependent protein kinase 1 (Homo sapiens) (UniProt Q13976).
T2 sequence (whole entry): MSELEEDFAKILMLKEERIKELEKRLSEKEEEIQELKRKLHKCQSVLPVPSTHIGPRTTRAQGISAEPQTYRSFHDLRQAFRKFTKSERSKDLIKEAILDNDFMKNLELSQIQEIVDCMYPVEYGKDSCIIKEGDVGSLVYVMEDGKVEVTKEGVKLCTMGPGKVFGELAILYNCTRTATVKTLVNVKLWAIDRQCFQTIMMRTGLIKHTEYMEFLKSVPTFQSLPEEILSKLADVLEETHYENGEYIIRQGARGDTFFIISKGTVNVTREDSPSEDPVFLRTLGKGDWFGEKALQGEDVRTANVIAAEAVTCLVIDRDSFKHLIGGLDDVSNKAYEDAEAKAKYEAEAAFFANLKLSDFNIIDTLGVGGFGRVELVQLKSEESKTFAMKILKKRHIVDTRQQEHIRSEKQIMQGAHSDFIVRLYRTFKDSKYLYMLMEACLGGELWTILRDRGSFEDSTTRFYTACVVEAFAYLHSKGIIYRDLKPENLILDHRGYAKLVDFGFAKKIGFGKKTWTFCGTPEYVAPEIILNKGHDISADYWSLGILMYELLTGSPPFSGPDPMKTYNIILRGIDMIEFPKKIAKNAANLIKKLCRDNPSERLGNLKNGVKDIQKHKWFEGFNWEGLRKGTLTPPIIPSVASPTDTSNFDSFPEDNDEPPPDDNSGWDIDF

The target of assay [15] is RAF proto-oncogene serine/threonine-protein kinase (Homo sapiens) (UniProt P04049).
In assay [16] the target is Serine/threonine-protein kinase RIO2 (Homo sapiens) (UniProt Q9BVS4).
Assay [17] deals with Receptor-interacting serine/threonine-protein kinase 1 (Homo sapiens) (UniProt Q13546).
Assay [18] addresses Receptor-interacting serine/threonine-protein kinase 4 (Homo sapiens) (UniProt P57078).
The target in assay [19] is Ribosomal protein S6 kinase alpha-4 (Homo sapiens) (UniProt O75676).
Assay [20] deals with SRSF protein kinase 2 (Homo sapiens) (UniProt P78362).
In assay [21] the target is Serine/threonine-protein kinase 33 (Homo sapiens) (UniProt Q9BYT3).
Assay [22] concerns the target Wee1-like protein kinase (Homo sapiens) (UniProt P30291).
Assay [23] has as its target Tyrosine-protein kinase Yes (Homo sapiens) (UniProt P07947).

Leukocyte tyrosine kinase receptor (Homo sapiens), sequence (P29376 whole entry): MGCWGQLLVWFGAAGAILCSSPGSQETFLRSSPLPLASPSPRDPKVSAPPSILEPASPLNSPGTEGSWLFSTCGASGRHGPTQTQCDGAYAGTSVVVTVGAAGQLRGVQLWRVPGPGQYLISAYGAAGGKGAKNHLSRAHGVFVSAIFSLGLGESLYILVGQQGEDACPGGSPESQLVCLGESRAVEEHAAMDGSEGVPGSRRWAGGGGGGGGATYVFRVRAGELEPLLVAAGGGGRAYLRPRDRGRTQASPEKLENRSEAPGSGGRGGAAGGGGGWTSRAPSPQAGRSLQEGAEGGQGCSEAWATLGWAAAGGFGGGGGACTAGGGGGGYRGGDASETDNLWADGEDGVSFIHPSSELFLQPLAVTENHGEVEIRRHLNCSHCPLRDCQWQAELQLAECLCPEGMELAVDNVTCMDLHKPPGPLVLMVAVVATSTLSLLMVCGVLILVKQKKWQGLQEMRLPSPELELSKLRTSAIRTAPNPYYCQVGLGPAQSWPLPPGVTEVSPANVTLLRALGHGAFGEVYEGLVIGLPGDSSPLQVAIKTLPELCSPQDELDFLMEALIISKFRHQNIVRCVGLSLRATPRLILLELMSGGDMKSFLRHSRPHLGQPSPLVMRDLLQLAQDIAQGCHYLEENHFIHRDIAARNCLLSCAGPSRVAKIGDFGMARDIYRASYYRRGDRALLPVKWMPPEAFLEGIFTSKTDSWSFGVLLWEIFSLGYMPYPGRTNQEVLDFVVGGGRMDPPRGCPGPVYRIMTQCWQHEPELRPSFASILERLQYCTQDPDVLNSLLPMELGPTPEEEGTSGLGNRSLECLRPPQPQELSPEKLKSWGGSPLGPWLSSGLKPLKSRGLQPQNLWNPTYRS
ALK tyrosine kinase receptor (Homo sapiens), sequence (Q9UM73 19-1620 limits assumed): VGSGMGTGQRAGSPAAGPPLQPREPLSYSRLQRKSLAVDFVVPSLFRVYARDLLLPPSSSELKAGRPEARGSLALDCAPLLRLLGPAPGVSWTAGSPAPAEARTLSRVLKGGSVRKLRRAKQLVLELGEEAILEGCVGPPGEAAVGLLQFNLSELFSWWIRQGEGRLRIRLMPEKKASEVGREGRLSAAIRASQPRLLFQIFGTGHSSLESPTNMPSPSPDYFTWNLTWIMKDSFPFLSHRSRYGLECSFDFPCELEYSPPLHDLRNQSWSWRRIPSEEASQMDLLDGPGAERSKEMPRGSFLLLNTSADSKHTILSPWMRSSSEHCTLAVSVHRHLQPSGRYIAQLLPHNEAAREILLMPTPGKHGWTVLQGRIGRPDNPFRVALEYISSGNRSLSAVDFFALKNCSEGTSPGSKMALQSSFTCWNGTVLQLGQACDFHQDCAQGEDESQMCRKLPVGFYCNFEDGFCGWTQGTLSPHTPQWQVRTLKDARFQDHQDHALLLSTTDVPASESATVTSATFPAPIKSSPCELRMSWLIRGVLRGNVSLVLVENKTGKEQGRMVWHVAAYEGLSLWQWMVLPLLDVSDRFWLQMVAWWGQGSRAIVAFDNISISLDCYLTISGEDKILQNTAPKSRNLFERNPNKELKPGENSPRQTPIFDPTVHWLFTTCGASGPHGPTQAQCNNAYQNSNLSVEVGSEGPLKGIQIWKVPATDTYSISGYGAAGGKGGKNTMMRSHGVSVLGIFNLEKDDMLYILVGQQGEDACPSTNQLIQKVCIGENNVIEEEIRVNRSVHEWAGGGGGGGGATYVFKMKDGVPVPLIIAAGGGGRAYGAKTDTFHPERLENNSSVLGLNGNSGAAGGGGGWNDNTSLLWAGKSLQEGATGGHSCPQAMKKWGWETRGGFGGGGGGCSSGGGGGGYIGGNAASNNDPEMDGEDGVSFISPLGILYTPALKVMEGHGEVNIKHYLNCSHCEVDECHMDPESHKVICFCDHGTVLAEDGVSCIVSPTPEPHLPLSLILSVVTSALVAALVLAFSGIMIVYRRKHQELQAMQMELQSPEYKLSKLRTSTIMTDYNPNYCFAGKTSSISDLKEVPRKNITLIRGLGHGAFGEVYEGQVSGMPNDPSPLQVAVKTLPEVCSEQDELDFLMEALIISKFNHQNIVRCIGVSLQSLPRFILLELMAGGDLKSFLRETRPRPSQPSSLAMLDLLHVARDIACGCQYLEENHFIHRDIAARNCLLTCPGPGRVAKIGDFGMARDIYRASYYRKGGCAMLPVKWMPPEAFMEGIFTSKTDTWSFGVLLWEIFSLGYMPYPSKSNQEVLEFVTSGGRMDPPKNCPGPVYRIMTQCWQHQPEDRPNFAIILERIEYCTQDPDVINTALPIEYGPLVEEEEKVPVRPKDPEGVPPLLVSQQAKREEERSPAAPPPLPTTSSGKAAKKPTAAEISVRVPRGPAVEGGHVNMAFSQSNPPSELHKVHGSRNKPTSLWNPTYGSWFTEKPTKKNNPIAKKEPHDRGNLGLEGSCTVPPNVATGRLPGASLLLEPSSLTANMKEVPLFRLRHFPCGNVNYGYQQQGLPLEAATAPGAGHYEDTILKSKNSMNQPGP
Wee1-like protein kinase (Homo sapiens), sequence (P30291 whole entry, looked up): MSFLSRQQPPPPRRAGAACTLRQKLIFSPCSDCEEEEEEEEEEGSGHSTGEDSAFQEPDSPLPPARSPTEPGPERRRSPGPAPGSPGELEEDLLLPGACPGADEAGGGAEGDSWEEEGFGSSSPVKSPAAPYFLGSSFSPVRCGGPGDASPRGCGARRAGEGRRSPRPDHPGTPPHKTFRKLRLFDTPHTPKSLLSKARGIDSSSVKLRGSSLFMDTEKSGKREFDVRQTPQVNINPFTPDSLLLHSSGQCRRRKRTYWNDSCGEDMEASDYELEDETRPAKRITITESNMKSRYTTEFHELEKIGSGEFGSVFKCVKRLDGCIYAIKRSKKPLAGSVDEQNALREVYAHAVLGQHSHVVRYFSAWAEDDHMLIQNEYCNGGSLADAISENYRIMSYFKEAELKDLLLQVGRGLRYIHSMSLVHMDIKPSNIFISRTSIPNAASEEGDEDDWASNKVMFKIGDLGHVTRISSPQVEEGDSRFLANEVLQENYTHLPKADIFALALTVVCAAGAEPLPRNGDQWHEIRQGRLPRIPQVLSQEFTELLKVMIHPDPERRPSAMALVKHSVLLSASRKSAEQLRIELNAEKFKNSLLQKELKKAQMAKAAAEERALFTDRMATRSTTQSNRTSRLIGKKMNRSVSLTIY

`CN(C)C(=O)Cn1cc(-c2nc(C3(c4ccc(-c5cnc(N)nc5)cc4)CC3)no2)cn1` [BI 0153]: the residual activity is 86% in [1]; 77% in assay [2]; 100% in assay [3]; 76% in assay [4]; 100% in [5]; 100% in assay [6]. Moreover, the residual activity in assay [7] is 100%; in [8] it was 100%; in assay [9] it was 100%; in [10], 90%; in assay [11], 66%; in assay [12], 89%. For the same molecule, the residual activity in assay [13] is 84%; in assay [14], 89%; in assay [15], 100%; in [16], 76%; in assay [17], 89%; in assay [18], 70%. Besides, the residual activity in [19] is 91%; in assay [20] it was 91%; in assay [21], 99%; in [22], 87%; in assay [23], 87%.
Turning to `CN(C)C(=O)Cn1cc(-c2nc([C@@](C)(c3ccc(-c4cnc(N)nc4)cc3)C3CC3)no2)cn1` [BI 665915], the residual activity was 84% in assay [1]; 85% in assay [2]; 100% in assay [3]; 82% in assay [4]; 100% in assay [5]; 80% in assay [6]. Besides, the residual activity was 100% in assay [7]; 100% in [8]; 33% in [9]; 89% in [10]; 90% in assay [11]; 86% in assay [12]. In addition, the residual activity was 99% in [13]; 100% in assay [14]; 100% in assay [15]; 87% in assay [16]; 82% in [17]; 93% in assay [18]. The residual activity in assay [19] is 100%; in assay [20] it was 100%; in assay [21] it was 100%; in [22], 94%; in [23] it was 94%.
